pIC50: −log10 of the molar value. Where a name gives a salt, the structure may show the parent alone. Some results are limits rather than exact numbers.

The text below walks through data of patent US12466820B2, “Amino quinazoline derivatives as P2X3 inhibitors” (CHIESI FARMACEUTICI S.p.A., priority 2019, dated 2025).

This test deals with T1, h P2X3 (Homo sapiens, UniProt P56373).
T1 sequence (P56373 1-397): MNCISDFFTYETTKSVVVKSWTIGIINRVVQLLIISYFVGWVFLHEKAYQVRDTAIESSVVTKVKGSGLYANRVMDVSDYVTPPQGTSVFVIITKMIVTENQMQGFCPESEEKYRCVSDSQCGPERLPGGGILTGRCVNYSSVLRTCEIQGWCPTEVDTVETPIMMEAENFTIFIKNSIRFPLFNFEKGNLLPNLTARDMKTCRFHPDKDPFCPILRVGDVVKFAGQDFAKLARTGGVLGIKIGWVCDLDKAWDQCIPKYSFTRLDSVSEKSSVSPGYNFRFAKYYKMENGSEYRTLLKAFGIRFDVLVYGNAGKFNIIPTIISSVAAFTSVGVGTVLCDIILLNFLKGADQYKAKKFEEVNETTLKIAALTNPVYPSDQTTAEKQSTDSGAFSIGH
As to the kind of experiment: In vitro electrophysiology assay for P2X3 (automated whole-cell patch clamp, Sophion Qube). Type of test: cell-based. The following applies: Table 6; range of activity; inhibition of P2X3 current, agonist α,β-MeATP (800 nM). On the procedure:
Pharmacological Activity of the Compounds of the Invention In Vitro Electrophysiology Assay for P2X3
Cells expressing P2X3 receptors were grown according to standard practice and maintained at 37° C. in a 5% humidified CO2 atmosphere. The cells were seeded into T175 flask 2 days prior to the day of the assay and dissociated from the flasks using TrypLE when grown to confluence of 80-90%. The dissociated cells were resuspended in serum free media at a cell density of 3×10^6 cells/ml and loaded onto the Sophion Qube automated patch-clamp system. The extracellular assay buffer contained 145 mM NaCl, 4 mM KCl, 2 mM CaCl2), 1 mM MgCl2, 10 mM HEPES, and 10 mM glucose at pH 7.4. The intracellular assay solution contained 140 mM CsF, 10 mM NaCl, 10 mM EGTA, 10 mM HEPES at pH 7.2. Agonist stock solutions were prepared in H2O and diluted in bath solution prior to use. All antagonists were prepared as 10 mM stock solutions in DMSO and diluted in bath solution prior to use. All experiments were performed under the whole-cell patch clamp configuration at room temperature with 384 individual cells being voltage clamped at −60 mV simultaneously on the Sophion Qube instrument. Two baseline responses were established with the application of α,β-MeATP (800 nM), with the subsequent agonist applications being washed out using extracellular assay buffer containing 0.5 U/ml apyrase. Following the second agonist application, antagonist was incubated in the absence of α,β-MeATP for 10 minutes. After antagonist preincubation, 800 nM α,β-MeATP and antagonist were co-administered to determine the inhibitory effect of the antagonist. One concentration of an antagonist was assessed against a single cell, with different concentrations of the antagonist applied to other cells on the 384 recording substrate. The control P2X3 current amplitude was taken from the peak current amplitude from the second agonist response prior to preincubation with antagonist. The peak P2X3 current amplitude in the presence of antagonist was used to calculate the inhibitory effect at each concentration of the antagonist according to the following equation: […]
Concentration-response curves were constructed from ten different concentrations with each concentration of antagonist tested on at least two individual cells. The concentration of the antagonist to inhibit P2X3 current by 50% (IC50) was determined by fitting the data with the following equation: […]
Where ‘a’ is minimum response, ‘b’ is maximum response, ‘c’ is IC50 and ‘d’ is Hill slope.
The results for individual compounds are provided below in Table 6 and are expressed as range of activity.
The activity of the comparative examples A and B have been tested in the in vitro Electrophysiology Assay for P2X3 as described above.
Background: The patch-clamp technique gives a direct electrical read-out from membranes.
As a reminder, the pIC50 is the IC50 on a negative log10 scale, so that one unit is a factor of ten. Higher therefore signals a low IC50. `COc1cc(-n2nccc2C)cc2c(N[C@H](C)c3ccc(C)nn3)ncnc12` [Example 102, (R)-8-methoxy-6-(5-methyl-1H-pyrazol-1-yl)-N-(1-(6-methylpyridazin-3-yl)ethyl)quinazolin-4-amine]: the pIC50 was 4.50 to 5.50. `COc1cc(-n2ccc(C)n2)cc2c(N[C@H](C)c3ccc(C)nn3)ncnc12` [Example 103, (R)-8-methoxy-6-(3-methyl-1H-pyrazol-1-yl)-N-(1-(6-methylpyridazin-3-yl)ethyl)quinazolin-4-amine] gave a pIC50 of 5.50 to 6.50. For `COc1cc(-n2cc(Cl)cn2)cc2c(N[C@H](C)c3cnc(C(F)(F)F)nc3)ncnc12` [Example 104, (R)-6-(4-chloro-1H-pyrazol-1-yl)-8-methoxy-N-(1-(2-(trifluoromethyl)pyrimidin-5-yl)ethyl)quinazolin-4-amine], the pIC50 was greater than 6.50. For `COc1cc(-c2ccn(C)n2)cc2c(NC(C)c3nnc(C)o3)ncnc12` (centres unmarked) [Example 105] the value was 5.50 to 6.50; for `COc1cc(-c2ncc(C)s2)cc2c(NC(C)c3nnc(C)s3)ncnc12` (centres unmarked) [Example 106, 8-methoxy-N-(1-(5-methyl-1,3,4-thiadiazol-2-yl)ethyl)-6-(5-methylthiazol-2-yl)quinazolin-4-amine], greater than 6.50. `COc1cc(-c2ncc(F)cn2)cc2c(NC(C)c3nnc(C)o3)ncnc12` (centres unmarked) [Example 110, 6-(5-fluoropyrimidin-2-yl)-8-methoxy-N-(1-(5-methyl-1,3,4-oxadiazol-2-yl)ethyl)quinazolin-4-amine] had a pIC50 of 5.50 to 6.50. Compound `COc1cc(-c2ncc(C)s2)cc2c(NCc3nnc(C)s3)ncnc12` [Example 114, 8-methoxy-N-((5-methyl-1,3,4-thiadiazol-2-yl)methyl)-6-(5-methylthiazol-2-yl)quinazolin-4-amine] showed a pIC50 greater than 6.50. Regarding `COc1cc(-c2ncc(C)s2)cc2c(NCc3ccn(C)c(=O)c3)ncnc12` [Example 115, 4-(((8-methoxy-6-(5-methylthiazol-2-yl)quinazolin-4-yl)amino)methyl)-1-methylpyridin-2(1H)-one], the pIC50 is greater than 6.50.

Compound `COc1cc(-c2ncc(C)s2)cc2c(NCc3ncc(F)cc3F)ncnc12` [Example 118, N-((3,5-difluoropyridin-2-yl)methyl)-8-methoxy-6-(5-methylthiazol-2-yl)quinazolin-4-amine] gave a negative-log IC50 (pIC50) greater than 6.50. With `COc1cc(-c2ncc(C)s2)cc2c(NCc3ccc(F)cn3)ncnc12` [Example 119, N-((5-fluoropyridin-2-yl)methyl)-8-methoxy-6-(5-methylthiazol-2-yl)quinazolin-4-amine], the pIC50 is greater than 6.50.

Compound `COc1cc(-c2ccc(F)cn2)cc2c(NCc3noc(C)n3)ncnc12` [Example 132, 6-(5-Fluoropyridin-2-yl)-8-methoxy-N-((5-methyl-1,2,4-oxadiazol-3-yl)methyl)quinazolin-4-amine] gave a pIC50 of 5.50 to 6.50.

Turning to `COc1cc(-c2ccc(F)cn2)cc2c(NCc3nc(C)no3)ncnc12` [Example 133, 6-(5-fluoropyridin-2-yl)-8-methoxy-N-((3-methyl-1,2,4-oxadiazol-5-yl)methyl)quinazolin-4-amine], the negative-log IC50 (pIC50) is 5.50 to 6.50. The compound `COc1cc(-c2ccc(F)cn2)cc2c(NCc3nnc(C)o3)ncnc12` [Example 134, 6-(5-fluoropyridin-2-yl)-8-methoxy-N-((5-methyl-1,3,4-oxadiazol-2-yl)methyl)quinazolin-4-amine] gave a pIC50 of 5.50 to 6.50. `COc1cc(-c2ccc(F)cn2)cc2c(NCc3cc(C)no3)ncnc12` [Example 135, 6-(5-fluoropyridin-2-yl)-8-methoxy-N-((3-methylisoxazol-5-yl)methyl)quinazolin-4-amine] gave a pIC50 of 5.50 to 6.50. Regarding `COc1cc(-c2ccc(F)cn2)cc2c(NCc3cc(C)on3)ncnc12` [Example 138, 6-(5-fluoro-2-pyridyl)-8-methoxy-N-[(5-methylisoxazol-3-yl)methyl]quinazolin-4-amine], the pIC50 was 5.50 to 6.50. The compound `COc1cc(-c2ccc(C)cn2)cc2c(NCc3cc(C)on3)ncnc12` [Example 139, 8-methoxy-N-[(5-methylisoxazol-3-yl)methyl]-6-(5-methyl-2-pyridyl)quinazolin-4-amine] had a pIC50 greater than 6.50. In turn, `COc1cc(-c2ccc(F)cn2)cc2c(NCc3ccn(C)n3)ncnc12` [Example 140, 6-(5-fluoro-2-pyridyl)-8-methoxy-N-[(1-methylpyrazol-3-yl)methyl]quinazolin-4-amine] gave a pIC50 of 5.50 to 6.50. `COc1cc(-c2ccc(C)cn2)cc2c(NCc3ccn(C)n3)ncnc12` [Example 141, 8-methoxy-N-[(1-methylpyrazol-3-yl)methyl]-6-(5-methyl-2-pyridyl)quinazolin-4-amine] had a negative logarithm of the IC50 (pIC50) of 5.50 to 6.50. In the case of `COc1cc(-c2ccc(F)cn2)cc2c(NCc3ccn(C)c(=O)c3)ncnc12` [Example 147, 4-(((6-(5-fluoropyridin-2-yl)-8-methoxyquinazolin-4-yl)amino)methyl)-1-methylpyridin-2(1H)-one], the pIC50 was 5.50 to 6.50. Then `COc1cc(-c2ccc(F)cn2)cc2c(NCc3cc[nH]c(=O)c3)ncnc12` [Example 148, 4-(((6-(5-fluoropyridin-2-yl)-8-methoxyquinazolin-4-yl)amino)methyl)pyridin-2(1H)-one], with 5.50 to 6.50; and `COc1cc(-c2ncc(C)cn2)cc2c(NCc3nc(C)no3)ncnc12` [Example 156, 8-Methoxy-N-((3-methyl-1,2,4-oxadiazol-5-yl)methyl)-6-(5-methylpyrimidin-2-yl)quinazolin-4-amine], with 5.50 to 6.50. Consider `COc1cc(-c2ccc(F)cn2)cc2c(N[C@H](C)c3ccn(C)n3)ncnc12` [Example 158, 6-(5-fluoro-2-pyridyl)-8-methoxy-N-[(1R)-1-(1-methylpyrazol-3-yl)ethyl]quinazolin-4-amine], for which the pIC50 is 5.50 to 6.50. `COc1cc(-c2ncc(C)cn2)cc2c(NCC(=O)N3CCOCC3)ncnc12` [Example 160, 2-((8-methoxy-6-(5-methylpyrimidin-2-yl)quinazolin-4-yl)amino)-1-morpholinoethan-1-one]: the pIC50 was 4.50 to 5.50. Regarding `COc1cc(-c2ccc(F)cc2)cc2c(NCc3ccc(F)cn3)ncnc12` [Example 161, 6-(4-Fluorophenyl)-N-[(5-fluoro-2-pyridyl)methyl]-8-methoxy-quinazolin-4-amine], the pIC50 is 5.50 to 6.50.

`COc1cc(-c2ccc(F)cc2)cc2c(N[C@@H](C)c3cnc(C(F)(F)F)nc3)ncnc12` [Example 185, 6-(4-fluorophenyl)-8-methoxy-N-[(1S)-1-[2-(trifluoromethyl)pyrimidin-5-yl]ethyl]quinazolin-4-amine formate] showed a pIC50 greater than 6.50. Compound `COc1cc(C2=CCOCC2)cc2c(NCc3ccc(C)nn3)ncnc12` [Example 188, 6-(3,6-Dihydro-2H-pyran-4-yl)-8-methoxy-N-((6-methylpyridazin-3-yl)methyl)quinazolin-4-amine] had a pIC50 of 4.50 to 5.50.
